Measured values published in patent US20140148446A1, “COMPOUNDS THAT ENABLE ALTERNATIVE MITOCHONDRIAL ELECTRON TRANSFER” (University of North Texas Health Science Center, priority 2010, published 2014).

Tests used:
HT-22 cells [1] = experiment: Protection against mitochondrial membrane potential collapse induced by glutamate in HT-22 cells; format: cell-based; conditions: Mus musculus
HT-22 cells [2] = experiment: Seahorse XF-24 metabolic flux analysis (OCR, ECAR); format: cell-based
Experimental: HT22 cells were plated at 8,000/well and cultured on Seahorse XF-24 plates. Cells were grown in previously described medium and environments for 24 hr. On the day of metabolic flux analysis, cells were changed to unbuffered DMEM (DMEM base medium supplemented with 25 mM glucose, 10 mM sodium pyruvate, 31 mM NaCl, 2 mM GlutaMax, pH 7.4) and incubated at 37° C. in a non-CO2 incubator for 1 hr. All medium and injection reagents were adjusted to pH 7.4 on the day of assay. Four baseline measurements of oxygen consumption rate (OCR) and extracellular acidification rate (ECAR) were taken before sequential injection of mitochondrial inhibitors. Specific readings indicated by the arrows were taken after each addition of mitochondrial inhibitor before injection of the subsequent inhibitors. The mitochondrial inhibitors used were oligomycin (10 μM), FCCP (1 μM), and rotenone (5 μM). OCR and ECAR were automatically calculated and recorded by the Seahorse XF-24 software. After the assays, plates were saved and protein readings were measured for each well to confirm equal cell numbers per well. The percentage of change compared with the basal rates was calculated as the value of change divided by the average value of baseline readings.

[3] = system: preclinical animal model of Alzheimer's disease; experiment: Preclinical animal model of Alzheimer's disease, MB supplemented diet; format: in vivo; conditions: long term feeding of MB supplemented diet
[4] = system: mitochondrial complex I-III; format: biochemical, rat
Experimental: (§1) Fresh rat heart was removed and placed in ice-cold mitochondrial isolation buffer containing 210 mM mannitol, 70 mM sucrose, 5 mM HEPES, and 1 mM EDTA, pH 7. The heart was homogenized immediately, and the mitochondrial fraction was isolated by differential centrifugation as described previously (Trounce et al., 1996). Mitochondria were stored at −80° C. until subsequent analysis.
(§2) All mitochondrial activity assays were performed according to previous publications with minimal modifications for complex I (Lenaz et al., 2004), complex I-III, complex II, complex III, and II-III (Trounce et al., 1996). […] Complex I activity was monitored by adding NADH to the mix with or without rotenone/antimycin A. The final data were normalized to blank values at time zero. The reaction was monitored in a kinetic spectrophotometer at 340 nm. Complex I activity was measured in arbitrary units and normalized to control levels for statistical analysis. Isolated mitochondria equivalent to 40-200 μg mitochondrial protein was used for each assay, except for assays with inhibitors, when larger amount of mitochondria (3 to 5 folds) were used to ensure that inhibition was distinguishable. Final data were normalized to control levels. For complex I-III activity, the reaction was initiated with the addition of NADH, cyt c was used as final substrate and its reduction was monitored at 550 nm. For assay of complex II-III activity, succinate was added instead of NADH, and the electron transfer to cyt c was performed according to previous publications (Atamna et al., 2008). To test whether the electrons from the reduced form of MB (MBH2) can be transferred to cyt c in mitochondrial lysate, we added 10 μM 2,7-dichlorofluorescin (DCFH, Invitrogen, Carlsbad, Calif.) to the reaction system. Free radicals convert non-fluorescent DCFH to highly fluorescent DCF (Ex, 488 nm, and Em, 530 nm). In the presence of cyt c, which accepts electrons from MBH2, conversion of DCFH to DCF is decreased.

mitochondrial complex II = biological target: T1, mitochondrial complex II (Rattus norvegicus, UniProt P21913+Q641Z9+Q6PCT8+Q920L2); experiment: Mitochondrial complex II activity assay; format: biochemical; conditions: data not shown
T1 construct: the mitochondrial fraction was isolated by differential centrifugation; from tissue; host or cells: rat heart mitochondria
Experimental: as §1
(§3) All mitochondrial activity assays were performed according to previous publications with minimal modifications for complex I (Lenaz et al., 2004), complex I-III, complex II, complex III, and II-III (Trounce et al., 1996). […] Complex I activity was monitored by adding NADH to the mix with or without rotenone/antimycin A. The final data were normalized to blank values at time zero. The reaction was monitored in a kinetic spectrophotometer at 340 nm. Complex I activity was measured in arbitrary units and normalized to control levels for statistical analysis. Isolated mitochondria equivalent to 40-200 μg mitochondrial protein was used for each assay, except for assays with inhibitors, when larger amount of mitochondria (3 to 5 folds) were used to ensure that inhibition was distinguishable. Final data were normalized to control levels. For complex I-III activity, the reaction was initiated with the addition of NADH, cyt c was used as final substrate and its reduction was monitored at 550 nm. […]

mitochondrial complex I = experiment: Mitochondrial complex I activity assay (NADH dehydrogenase); format: biochemical, rat; conditions: in place of CoQ1
Experimental: as §1, §2

[5] = system: mitochondrial complex III; experiment: Mitochondrial complex III activity assay; format: biochemical, rat; conditions: data not shown
Experimental: as §1, §3

HT-22 cells [6] = experiment: Cell viability assay, H2O2 (glucose oxidase) induced cytotoxicity; format: cell-based
[7] = system: mitochondrial complex II-III; experiment: Mitochondrial complex II-III activity in extracted mitochondria; format: biochemical, rat; conditions: with and without antimycin A
Experimental: as §1, §3

HT-22 cells [8] = experiment: Cell viability assay, rotenone induced cytotoxicity; format: cell-based; conditions: rotenone 8 μM, 100 ng/ml MB co-treatment; vehicle 25.4±1.6%
Experimental: Then cells were treated with vehicle (DMSO), rotenone (2-8 μM), antimycin A (1-10 μg/ml), or glucose oxidase (2-10 mU) in the presence or absence of various concentrations of MB for 24 hours. At the end of the 24 hours, the medium was removed and the plates were rinsed with PBS and incubated with 10 μM calcein-AM (Invitrogen, Carlsbad, Calif.) in PBS for 20 minutes. Fluorescence was determined using a TECAN M200 microplate reader (San Jose, Calif.) with an excitation/emission set at 485/530 nm. Cell culture wells treated with bleach before rinsing were used as blank.

HT-22 cells [9] = experiment: Mitochondrial superoxide and cellular ROS analysis, rotenone treated cells; format: cell-based; conditions: MB 100 ng/ml
Experimental: Mitochondrial specific superoxide and cellular ROS were measured with specific fluorescent probes. Briefly, HT-22 cells were treated with vehicle or 2 μM rotenone, with or without 100 ng/ml MB for 4 hr. The cells were dissociated, then incubated in pre-warmed PBS containing 0.5% BSA and H2DCFDA (Cellular ROS) or MitoSox (mitochondrial superoxide) for 15 min at 37° C., followed by washing with PBS. The cells were then resuspended in supplemented RPMI-1640 for further incubation. The cells were analyzed with FITC channel (Cellular ROS), or PE channel (MitoSox) using a BD™ LSRII flow cytometer.

[10] = system: transient MCA occlusion in rats; experiment: Transient focal cerebral ischemia (MCA occlusion); format: in vivo; conditions: rat, single dosage of MB at 500 μg/kg, 24 hr after reperfusion
From the text: Transient focal cerebral ischemia was induced by intraluminal filament MCA occlusion (Liu et al., 2005). Briefly, the left internal carotid artery (ICA) was exposed, and a 3-0 monofilament nylon suture was introduced into the ICA lumen through a puncture and gently advanced to the distal ICA until proper resistance was felt. After 1 hr, the suture was withdrawn for reperfusion. At 24 hr after reperfusion, the animals were sacrificed and the brain harvested. The brains were sectioned at 3, 5, 7, 9, 11, 13 and 15 mm posterior to the olfactory bulb. Each slice was incubated 30 min in 2% 2,3,5-triphenyltetrazolium chloride (TTC) in physiological saline, then fixed in 10% formalin. The stained slices were digitally photographed for measurement of ischemic lesion volume (Image-Pro Plus 4.1).

[11] = pH 7.0; cited from earlier work
FRDA fibroblast = experiment: BSO induced FRDA fibroblast cell death; format: cell-based
HT-22 cells [12] = experiment: Protection against cell death (cell viability) induced by glutamate in HT-22 cells; format: cell-based; conditions: Mus musculus
Experimental: HT-22 cells (gift from Dr. David Schubert, Salk Institute, San Diego, Calif.) were plated at 4,000 cells per well in 96 well plates and cultured over night. […] At the end of the 24 hours, the medium was removed and the plates were rinsed with PBS and incubated with 10 μM calcein-AM (Invitrogen, Carlsbad, Calif.) in PBS for 20 minutes. […] Cell culture wells treated with bleach before rinsing were used as blank.

T1 sequence (Q920L2 35-656): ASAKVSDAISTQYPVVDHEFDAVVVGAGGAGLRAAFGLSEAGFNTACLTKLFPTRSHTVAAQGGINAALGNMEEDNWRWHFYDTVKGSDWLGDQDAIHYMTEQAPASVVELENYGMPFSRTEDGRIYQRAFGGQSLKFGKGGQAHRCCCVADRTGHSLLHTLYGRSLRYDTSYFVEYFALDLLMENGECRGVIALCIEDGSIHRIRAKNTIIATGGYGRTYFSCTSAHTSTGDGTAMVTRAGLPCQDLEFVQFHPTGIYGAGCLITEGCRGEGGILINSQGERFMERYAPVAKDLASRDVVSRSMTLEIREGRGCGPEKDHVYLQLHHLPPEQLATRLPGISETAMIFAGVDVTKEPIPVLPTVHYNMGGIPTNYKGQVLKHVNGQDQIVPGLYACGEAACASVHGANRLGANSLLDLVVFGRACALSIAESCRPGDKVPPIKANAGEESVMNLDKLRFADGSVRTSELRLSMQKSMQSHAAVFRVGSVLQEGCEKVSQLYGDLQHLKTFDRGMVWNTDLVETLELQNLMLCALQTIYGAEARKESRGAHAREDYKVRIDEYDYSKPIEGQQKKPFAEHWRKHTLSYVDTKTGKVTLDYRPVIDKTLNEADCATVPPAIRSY
T1 sequence (P21913 31-282): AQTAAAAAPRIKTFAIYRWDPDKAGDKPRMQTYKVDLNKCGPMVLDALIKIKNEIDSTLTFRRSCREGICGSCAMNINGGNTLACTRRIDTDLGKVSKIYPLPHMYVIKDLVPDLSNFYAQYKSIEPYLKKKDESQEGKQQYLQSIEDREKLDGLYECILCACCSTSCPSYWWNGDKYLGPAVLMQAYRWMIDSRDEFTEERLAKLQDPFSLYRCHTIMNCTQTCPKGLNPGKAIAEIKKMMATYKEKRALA
T1 sequence (Q641Z9 1-169): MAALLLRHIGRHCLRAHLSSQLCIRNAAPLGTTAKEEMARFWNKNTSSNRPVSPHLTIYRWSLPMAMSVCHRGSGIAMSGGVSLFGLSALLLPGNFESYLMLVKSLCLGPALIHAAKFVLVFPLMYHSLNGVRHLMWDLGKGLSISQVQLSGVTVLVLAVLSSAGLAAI
T1 sequence (Q6PCT8 57-159): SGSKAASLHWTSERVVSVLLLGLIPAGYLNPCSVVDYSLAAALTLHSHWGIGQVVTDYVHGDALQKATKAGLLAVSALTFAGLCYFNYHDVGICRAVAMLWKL

For CN(C)c1ccc2nc3ccc(=[N+](C)C)cc-3sc2c1 [methylene blue], the EC50 (HT-22 cells [1]) was 17.7 nM, the “Extracellular acidification rate (ECAR)” value (HT-22 cells [2]; 10 μg/ml MB, two hour incubation, vehicle 44±4) was 9±3 mPH/min and the “Oxygen consumption rate (OCR)” value (HT-22 cells [2]; 10 μg/ml MB, two hour incubation, vehicle 264±10) was 594 ± 19 pmol/min. The “Rotenone induced OCR inhibition” value (HT-22 cells [2]; rotenone 5 μM injection) was “dose-dependently attenuated”, the Cognitive functions [3] was “improves cognitive functions” and the Maximal performance [3] was “improves maximal performance”. For the same compound, the “Complex I-III activity, % of the control level” value ([4]; 1 μg/ml MB, in the presence of antimycin A) was 674±99%, the “Complex I-III activity, % of control” value ([4]; 1 μg/ml MB, in the presence of rotenone) was 118.1±6.4% and the “Increase of complex I-III activity” value ([4]; increasing doses of MB (0.1-1 μg/ml)) was “up to nine-fold increase”. The “Effect on complex II activity alone” value (mitochondrial complex II) was “no significant effect”, the “Substrate of NADH dehydrogenase in complex I (accepts electrons from NADH)” value (mitochondrial complex I) was “can completely replace CoQ1 as a direct substrate” and the “Effect on complex III activity alone” value [5] was “no significant effect”. For the same compound, the “Protection against H2O2 induced oxidative damage” value (HT-22 cells [6]) was “failed to protect”, the “Effect on complex II-III activity” value [7] was “no significant effects” and the Cell survival (HT-22 cells [8]) was 60.5±4.5%. For the same compound, the “Increase of mitochondrial superoxide (MitoSox probe)” value (HT-22 cells [9]) was “almost completely blocked”, the “Increase of total cellular ROS (DCFH2-DA)” value (HT-22 cells [9]) was “almost completely blocked” and the Ischemic lesion volume [10] was “significantly reduced”. For the same compound, the Redox potential [11] was 11 mV, the “Damaging effects of BSO (cell death)” value (FRDA fibroblast) was “greatly ameliorates” and the EC50 (HT-22 cells [12]; HT-22, glutamate toxicity, HT22 cells, read-out: EC50 against glutamate toxicity in HT22 cells) was 0.176 nM. The EC50 (HT-22 cells [12]; glutamate, HT-22 cells, read-out: Protection against cell death (EC50)) was 18.8 nM.
